Test system: 699152-130-R-J1-PDC complex spheroid growth
Test: Anticancer human tumor 699152-130-R-J1-PDC patient-derived pancreatic carcinoma cell line growth inhibition [AhR]
Conditions: for IC50: curve of first compound; for viability, T/C: stronger effect = lower value
Source text: Multicellular complex tumor spheroid response to aryl hydrocarbon receptor antagonists in combination with a variety of drugs and investigational agents in selected tumor cell lines
The current study was undertaken to assess response to aryl hydrocarbon receptor antagonists in combination with standard-of-care drugs and investigational agents in solid tumor complex spheroid models. Complex spheroids include a stromal component modeled by human endothelial cells (HUVEC) and fibroblasts modeled by human mesenchymal stem cells (MSCs). The concentration ranges selected for each drug and investigational agent were based upon clinically achievable concentrations if the clinical Cmax of the agent was known.
Compounds. The drugs and investigational agents: BAY 2416964 (NSC825713), GNF351 (NSC835774), CH-223191 (NSC835775), CPI-455 (NSC825282), aza-TdCyd (NSC777586), decitabine (NSC127716), belinostat (NSC758774), entinostat (NSC756642), pevonedistat (NSC761192), tazemetostat (NSC777109), talazoparib (NSC765396), olaparib (NSC753686), selinexor (NSC780203), nedisertib (M3814, NSC802822), bortezomib (NSC756655), venetoclax (NSC766270), doxorubicin (NSC123127), elimusertib (BAY189344, NSC800525), ceralasertib (AZD6738, NSC777638), TAK-243 (NSC785004), alisertib (NSC759677), etoposide (NSC141540), topotecan (NSC609699), eribulin (NSC707389), gemcitabine (NSC613327), carboplatin (NSC241240), cisplatin (NSC119875), and SN-38 (NSC673596) were obtained from the National Cancer Institute (NCI) Developmental Therapeutics Program Chemical Repository (32). The FDA-approved anticancer drug set is available from the Developmental Therapeutics Program at https://dtp.cancer.gov/organization/dscb/obtaining/available plates.htm. […] The stock solutions were prepared in dimethyl sulfoxide (DMSO, Sigma-Aldrich, St. Louis, MO, cat. D2650), except for the platinum compounds which were prepared in saline (Quality Biological, Gaithersburg, MD, cat. 114-055-101), at 800-fold the tested concentration and stored at -70 degrees C prior to their use. All drugs and investigational agents were tested over a range starting from a high concentration at or near the clinical Cmax and decreasing in half-log increments. If the clinical Cmax for an agent had not been determined, the highest concentration tested was 10 microM (Table 1).
Cell Culture. All cells were maintained in an incubator at 37 degrees C and 5% CO2 with 95% humidity. The PDC lines were cultured according to standard operating procedures established by the NCI PDMR (https://pdmr.cancer.gov). Briefly, all PDCs were thawed and cultured in Matrigel-coated flasks prepared with a working solution of 1X Ham's F-12 nutrient mix, without supplementation (Invitrogen, Waltham, MA, cat. 11765054), 100 U/mL penicillin-streptomycin (Invitrogen, cat. 15140122), and 2.5% Matrigel (Corning Inc., Corning, NY, cat. 354248) for the first three passages. All PDCs were cultured in complete DMEM/F-12 media containing advanced DMEM/F-12 (Invitrogen, cat. 12634028), 4.9% defined fetal bovine serum, heat inactivated (HyClone Laboratories Inc., Logan, UT, cat. SH30070.03HI), 389 ng/mL hydrocortisone (Sigma-Aldrich, cat. H4001), 9.7 ng/mL human EGF recombinant protein (Invitrogen, cat. PHG0313), 23.4 microg/mL adenine (Sigma-Aldrich, cat. A2786), 97.3 U/mL penicillin-streptomycin (Invitrogen, cat. 15140122), 1.9 mM L-glutamine (Invitrogen, cat. 25030081), and 9.7 microM Y-27632 dihydrochloride (Tocris Bioscience, Bristol, United Kingdom, cat. 1254). The PDCs were cultured in complete DMEM/F12 media without 10 microM Y-27632 dihydrochloride for at least two passages prior to the screen. The established cell lines NCI-H1341 and […] were cultured in DMEM/F-12, HEPES (Invitrogen, cat. 11330032), 5% defined fetal bovine serum (HyClone Laboratories Inc., cat. SH30070.03), ITS premix universal culture supplement [insulin (5 microg/mL), transferrin (5 microg/mL), and selenious acid (5 ng/mL)] […]

[1] = second compound 0.1 µM, first compound 0.0316 µM
[2] = second compound 0.1 µM, first compound 0.1 µM
[3] = second compound 0.1 µM, first compound 0.316 µM
[4] = second compound 0.1 µM, first compound 1 µM
[5] = second compound 0.316 µM, first compound 0.0316 µM
[6] = second compound 0.316 µM, first compound 0.1 µM
[7] = second compound 0.316 µM, first compound 0.316 µM
[8] = second compound 0.316 µM, first compound 1 µM
[9] = second compound 1 µM, first compound 0.0316 µM
[10] = second compound 1 µM, first compound 0.1 µM
[11] = second compound 1 µM, first compound 0.316 µM
[12] = second compound 1 µM, first compound 1 µM
[13] = second compound 3.16 µM, first compound 0.0316 µM
[14] = second compound 3.16 µM, first compound 0.1 µM
[15] = second compound 3.16 µM, first compound 0.316 µM
[16] = second compound 3.16 µM, first compound 1 µM
[17] = second compound 10 µM, first compound 0.0316 µM
[18] = second compound 10 µM, first compound 0.1 µM
[19] = second compound 10 µM, first compound 0.316 µM
[20] = second compound 10 µM, first compound 1 µM
[21] = second compound 0.1 µM, first compound 3.16 µM
[22] = second compound 0.1 µM, first compound 10 µM
[23] = second compound 0.316 µM, first compound 3.16 µM
[24] = second compound 0.316 µM, first compound 10 µM
[25] = second compound 1 µM, first compound 3.16 µM
[26] = second compound 1 µM, first compound 10 µM
[27] = second compound 3.16 µM, first compound 3.16 µM
[28] = second compound 3.16 µM, first compound 10 µM
[29] = second compound 10 µM, first compound 3.16 µM
[30] = second compound 10 µM, first compound 10 µM
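Also: compound exposure lasted 7 days after spheroids had grown for 3 days.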

Structure (SMILES)	IC50 (second compound 0.1 µM) [nM]	IC50 (second compound 0.316 µM) [nM]	IC50 (second compound 1 µM) [nM]	IC50 (second compound 3.16 µM) [nM]	IC50 (second compound 10 µM) [nM]	viability, T/C [1] [%]	viability, T/C [2] [%]	viability, T/C [3] [%]	viability, T/C [4] [%]	viability, T/C [5] [%]	viability, T/C [6] [%]	viability, T/C [7] [%]	viability, T/C [8] [%]	viability, T/C [9] [%]	viability, T/C [10] [%]	viability, T/C [11] [%]	viability, T/C [12] [%]	viability, T/C [13] [%]	viability, T/C [14] [%]	viability, T/C [15] [%]	also measured
CC1COCCN1c1cc(-c2ccnn2C)c2ccnc(-c3ccn[nH]3)c2n1 (stereo not given) + Cc1cncc(-c2nc(NCCc3c[nH]c4ccccc34)c3ncn(C(C)C)c3n2)c1	> 1000	> 1000	> 1000	489	< 3.16	107	96.5	75.7	64.4	103	88.3	81.6	62	135	105	79.9	64.9	67.2	57.4	52.5	viability, T/C (second compound 0.1 µM, first compound 0.00316 µM): 109%; viability, T/C (second compound 0.1 µM, first compound 0.01 µM): 94.4%; viability, T/C (second compound 0.316 µM, first compound 0.00316 µM): 119%; viability, T/C (second compound 0.316 µM, first compound 0.01 µM): 122%; viability, T/C (second compound 1 µM, first compound 0.00316 µM): 127%; viability, T/C (second compound 1 µM, first compound 0.01 µM): 128%; viability, T/C (second compound 3.16 µM, first compound 0.00316 µM): 77.6%; viability, T/C (second compound 3.16 µM, first compound 0.01 µM): 64.1%; viability, T/C [16]: 46%; viability, T/C (second compound 10 µM, first compound 0.00316 µM): 5.06%; viability, T/C (second compound 10 µM, first compound 0.01 µM): 5.37%; viability, T/C [17]: 5.23%; viability, T/C [18]: 5.76%; viability, T/C [19]: 7.12%; viability, T/C [20]: 9.33%
NS(=O)(=O)OCC1CC(n2ccc3c(NC4CCc5ccccc54)ncnc32)CC1O (stereo not given) + Cc1ccccc1N=Nc1ccc(NC(=O)c2ccnn2C)c(C)c1	807	724	739	694	542	98.3	107	107	37.5	102	103	104	29.4	105	116	105	30.3	115	115	96.7	viability, T/C [21]: 21.6%; viability, T/C [22]: 25.2%; viability, T/C [23]: 18.5%; viability, T/C [24]: 20.1%; viability, T/C [25]: 20.2%; viability, T/C [26]: 27.1%; viability, T/C [16]: 28.4%; viability, T/C [27]: 20.8%; viability, T/C [28]: 24.9%; viability, T/C [17]: 122%; viability, T/C [18]: 125%; viability, T/C [19]: 67.3%; viability, T/C [20]: 32.9%; viability, T/C [29]: 27.2%; viability, T/C [30]: 30.8%
COc1cc(C2c3cc4c(cc3C(OC3OC5COC(C)OC5C(O)C3O)C3COC(=O)C23)OCO4)cc(OC)c1O (stereo not given) + CC(CO)NC(=O)c1cc(-c2ccc(Cl)cc2)nn(-c2cnn(C)c2)c1=O	9980	8520	> 10000	6670	7750	101	98.3	87.8	69.4	93.7	93.7	74	61.2	95.1	92.3	82.2	73.3	82.4	86	69.5	viability, T/C [21]: 61.9%; viability, T/C [22]: 48.6%; viability, T/C [23]: 54.8%; viability, T/C [24]: 47.5%; viability, T/C [25]: 53.2%; viability, T/C [26]: 53.9%; viability, T/C [16]: 65.5%; viability, T/C [27]: 59.1%; viability, T/C [28]: 45.5%; viability, T/C [17]: 77.6%; viability, T/C [18]: 82.9%; viability, T/C [19]: 79.7%; viability, T/C [20]: 57%; viability, T/C [29]: 57.1%; viability, T/C [30]: 43.3%

Source: PubChem BioAssay AID1919001 (Molecular Pharmacology Branch, DTP, NCI, 2023)
